According to patent US11286255B2, “Pyridone carboxylic acid derivative or salt thereof” (WAKUNAGA PHARMACEUTICAL CO., LTD., priority 2017, dated 2022):

Assays:
[1] = system: NCI-H460 (human non-small cell lung cancer cell line); experiment: In vitro cell growth inhibition test against NCI-H460; assay type: cell-based; conditions: 72 h, NCI-H460 cells, 3 days culture, WST-8 (Cell Counting Kit-8), 50% growth inhibition concentration
Procedure: Test Example 1: In Vitro Cell Growth Inhibition Test Against NCI-H460 (Human Non-Small Cell Lung Cancer Cell Line)
An NCI-H460 cell suspension was inoculated at 4×10^3 cells/100 μL/well (0.1 mL) to a 96-well flat-bottomed multiplate using RPMI-1640 (Sigma-Aldrich Co. LLC, R8758) medium containing 10% […] (fetal bovine serum, Thermo Fisher Scientific Inc.), and cultured at 37° C. for 1 day in an incubator containing 5% carbon dioxide. The compound of the present invention was dissolved at a concentration of 1 mM in dimethyl sulfoxide and further diluted into 5.00, 2.50, 1.25, 0.63, 0.31, 0.16, 0.078, and 0.039 μM (final concentrations) using dimethyl sulfoxide and RPMI-1640 medium. Each of these dilutions was added at 0.1 mL/well to the culture plate of the NCI-H460 cells mentioned above after removal of the medium, and the cells were cultured at 37° C. for 3 days in an incubator containing 5% carbon dioxide.
After the culture, Cell Counting Kit-8 (Dojindo Laboratories), which adopts WST-8 [2-(2-methoxy-4-nitrophenyl)-3-(4-nitrophenyl)-5-(2,4-disulfophenyl)-2H-tetrazolium monosodium salt] as a chromogenic substrate, was added at 10 μL/well, and the cells were cultured under the same conditions as above for 1 hour, followed by measurement of absorbance at 450 nm. A cell survival rate was calculated in terms of 50% growth inhibition concentration (IC50 (μM)) by the least square method with that of a control group defined as 100%.

[2] = system: relapsed/refractory acute myeloid leukemia; conditions: overall survival targeting all patients; cited from earlier work

Compound | IC50 [1] | therapeutic effect in overall survival (primary endpoint) as compared with a placebo group [2]
CC(=O)C1CN(c2cc(C)c3c(=O)c(C(=O)O)cn(-c4nccs4)c3n2)C1 [Example 020, 7-(3-Acetylazetidin-1-yl)-5-methyl-4-oxo-1-(1,3-thiazol-2-yl)-1,4-dihydro-1,8-naphthyridine-3-carboxylic acid] | 340 nM | –
CCOCCNC(=O)C1CN(c2cc(C)c3c(=O)c(C(=O)O)cn(-c4nc(-c5cccnc5)cs4)c3n2)C1 [Example 414, 7-{3-[(2-Ethoxyethyl)carbamoyl]azetidin-1-yl}-5-methyl-4-oxo-1-[4-(pyridin-3-yl)-1,3-thiazol-2-yl]-1,4-dihydro-1,8-naphthyridine-3-carboxylic acid] | 400 nM | –
Cc1c(F)c(N2CC(n3cccn3)C2)nc2c1c(=O)c(C(=O)O)cn2-c1nccs1 [Example 487, 6-Fluoro-5-methyl-4-oxo-7-[3-(1H-pyrazol-1-yl)azetidin-1-yl]-1-(1,3-thiazol-2-yl)-1,4-dihydro-1,8-naphthyridine-3-carboxylic acid] | 160 nM | –
CCONC1CN(c2cc(C)c3c(=O)c(C(=O)O)cn(-c4ncns4)c3n2)C1 [Example 541, 7-[3-(Ethoxyamino)azetidin-1-yl]-5-methyl-4-oxo-1-(1,2,4-thiadiazol-5-yl)-1,4-dihydro-1,8-naphthyridine-3-carboxylic acid] | 390 nM | –
CCOCC(COCC)NC(=O)C1CN(c2cc(C)c3c(=O)c(C(=O)O)cn(-c4nccs4)c3n2)C1 [Example 006, 7-{3-[(1,3-Diethoxypropan-2-yl)carbamoyl]azetidin-1-yl}-5-methyl-4-oxo-1-(1,3-thiazol-2-yl)-1,4-dihydro-1,8-naphthyridine-3-carboxylic acid] | 110 nM | –
Cc1ccc(C(=O)NC2CN(c3nc4c(cc3F)c(=O)c(C(=O)O)cn4-c3nccs3)C2)nc1 [Example 586, 6-Fluoro-7-[3-(5-methylpyridine-2-amido)azetidin-1-yl]-4-oxo-1-(1,3-thiazol-2-yl)-1,4-dihydro-1,8-naphthyridine-3-carboxylic acid] | 410 nM | –
Cc1cnc(C2CN(c3cc(C)c4c(=O)c(C(=O)O)cn(-c5ncns5)c4n3)C2)o1 [Example 489, 5-Methyl-7-[3-(5-methyl-1,3-oxazol-2-yl)azetidin-1-yl]-4-oxo-1-(1,2,4-thiadiazol-5-yl)-1,4-dihydro-1,8-naphthyridine-3-carboxylic acid] | 260 nM | –
Cc1cc(N2CC(c3ccon3)C2)nc2c1c(=O)c(C(=O)O)cn2-c1ncns1 [Example 499, 5-Methyl-7-[3-(1,2-oxazol-3-yl)azetidin-1-yl]-4-oxo-1-(1,2,4-thiadiazol-5-yl)-1,4-dihydro-1,8-naphthyridine-3-carboxylic acid] | 200 nM | –
O=C(O)c1cn(-c2nccs2)c2nc(N3CC(C(=O)NCC4CCCCO4)C3)c(F)cc2c1=O (centres unmarked) [Example 173, 6-Fluoro-7-{3-[(oxan-2-ylmethyl)carbamoyl]azetidin-1-yl}-4-oxo-1-(1,3-thiazol-2-yl)-1,4-dihydro-1,8-naphthyridine-3-carboxylic acid] | 260 nM | –
CNOC1CN(c2cc(C)c3c(=O)c(C(=O)O)cn(-c4ncns4)c3n2)C1 [Example 553, 5-methyl-7-{3-[(methylamino)oxy]azetidin-1-yl}-4-oxo-1-(1,2,4-thiadiazol-5-yl)-1,4-dihydro-1,8-naphthyridine-3-carboxylic acid] | 380 nM | –
O=C(O)c1cn(-c2nccs2)c2nc(N3CC(C(=O)Nc4ccccn4)C3)c(F)cc2c1=O [Example 083, 6-Fluoro-4-oxo-7-{3-[(pyridin-2-yl)carbamoyl]azetidin-1-yl}-1-(1,3-thiazol-2-yl)-1,4-dihydro-1,8-naphthyridine-3-carboxylic acid] | 190 nM | –
O=C(O)c1cn(-c2nccs2)c2nc(N3CC(CNc4ccccn4)C3)c(F)cc2c1=O [Example 561, 6-Fluoro-4-oxo-7-(3-{[(pyridin-2-yl)amino]methyl}azetidin-1-yl)-1-(1,3-thiazol-2-yl)-1,4-dihydro-1,8-naphthyridine-3-carboxylic acid] | 900 nM | –
COCC(COC)NC(=O)C1CN(c2cc(C)c3c(=O)c(C(=O)O)cn(-c4nccs4)c3n2)C1 [Example 243, 7-{3-[(1,3-Dimethoxypropan-2-yl)carbamoyl]azetidin-1-yl}-5-methyl-4-oxo-1-(1,3-thiazol-2-yl)-1,4-dihydro-1,8-naphthyridine-3-carboxylic acid] | 220 nM | –
CCCn1nc(NC(=O)C2CN(c3nc4c(c(C)c3F)c(=O)c(C(=O)O)cn4-c3ncns3)C2)cc1C [Example 218, 6-Fluoro-5-methyl-7-{3-[(5-methyl-1-propyl-1H-pyrazol-3-yl)carbamoyl]azetidin-1-yl}-4-oxo-1-(1,2,4-thiadiazol-5-yl)-1,4-dihydro-1,8-naphthyridine-3-carboxylic acid] | 260 nM | –
O=C(O)c1cn(-c2ncns2)c2nc(N3CC(NOCc4ccccc4)C3)c(F)cc2c1=O [Example 549, 7-{3-[(Benzyloxy)amino]azetidin-1-yl}-6-fluoro-4-oxo-1-(1,2,4-thiadiazol-5-yl)-1,4-dihydro-1,8-naphthyridine-3-carboxylic acid] | 190 nM | –
Cc1ccc(C(=O)NC2CN(c3cc(C)c4c(=O)c(C(=O)O)cn(-c5ncns5)c4n3)C2)nc1 [Example 584, 5-Methyl-7-[3-(5-methylpyridine-2-amido)azetidin-1-yl]-4-oxo-1-(1,2,4-thiadiazol-5-yl)-1,4-dihydro-1,8-naphthyridine-3-carboxylic acid] | 210 nM | –
CNC1CN(c2ccc3c(=O)c(C(=O)O)cn(-c4nccs4)c3n2)CC1OC (centres unmarked) [the compound, 1,4-dihydro-7-(3-methoxy-4-methylamino-1-pyrrolidinyl)-4-oxo-1-(2-thiazolyl)-1,8-naphthyridine-3-carboxylic acid, reference compound] | – | does not exhibit a significant therapeutic effect
